Laboratory results taken from publication PMC6382696, “Drug Repurposing: The Anthelmintics Niclosamide and Nitazoxanide Are Potent TMEM16A Antagonists That Fully Bronchodilate Airways” (Frontiers in Pharmacology, 2019).
Where two headings read alike, the source gives them in different places.

How the values were obtained:
primary human ASM cells [1] = assay: Eact-induced calcium flux in primary human ASM cells; format: cell-based; conditions: Eact 10 M (so in the source), read-out: IC50 block of Eact calcium flux
Description: (§1) 1.1 Measuring antagonist effects on bronchial smooth muscle cell (BSMC) pro-contractile calcium flux.
(§2) Human BSMCs were obtained from Lonza, resuspended, cultured and serum starved for 24 hours as described for the histamine membrane potential assay. Compounds and dilutions were prepared in same manner, except they were serially diluted in Assay Buffer (2 mM CaCl2, 1 mM MgCl2, 4.5 mM KCl, 155 mM NaCl, 5 mM HEPES, 10 mM glucose, pH7.4) to 4X the final concentration. A Calcium Indicator Working Solution (10 ml) was prepared by adding 1ml BD PBX Signal Enhancer (Cat# 51 -9006254) and 10 µl of BD Calcium Indicator (BD Cat# 850000 resuspended in 100% DMSO) to 9 ml Assay Buffer. Following serum starvation of the BSMCs, culture media was aspirated off and 50µl of Calcium Indicator Working Solution was added t o each well of microtiter plate. Twenty-five microliters of the 4X serially diluted compounds were then added and cells were incubated with compounds for 30 minutes at room temperature. Twenty -five microliters of a 4X histamine or methacholine solution (where 1X reflects EC 80-EC100 concentration from earlier validation of aliquot of cells from same donor) was then added and fluorescence changes were measured by a FLIPR-Tetra or internal FlashFluor instrument. In some experiments the TMEM16A opener, Eact, was used in place of histamine or methacholine.

[2] = tested on: human bronchial smooth muscle cells; assay: Histamine-induced depolarization of human bronchial smooth muscle cells (FLIPR membrane potential); format: cell-based; conditions: donor 199524, 1 M histamine (so in the source), read-out: EC50 inhibition of histamine-induced depolarization (converted)
human CFTR = target: T1, human CFTR (Homo sapiens, UniProt P13569); assay: IonWorks Barracuda electrophysiology, CFTR chloride current in CHO cells; format: cell-based; conditions: for effect on CFTR chloride current: 10 µM compound, CHO CFTR
T1 construct: host or cells: CHO
Source text: HEK293 cells stably expressing the human TMEM16A (abc) variant and CHO cells expressing the human CFTR gene were from ChanTest. The IonWorks Barracuda (IWB) procedure and data provided are from outsourced studies performed at ChanTest (Charles River Discovery, Cleveland, OH, United States) who were blinded as to the identity of the test articles or compounds provided by Amgen.
For measuring compound effects on CFTR chloride currents, compounds were serially diluted in HEPES-buffered physiological saline to 2X final concentration allowing for an 8-point dose-response analysis. Test article concentrations were applied to naïve cells (n = 4, where n = the number of replicate wells/concentration) via steel needles, where each application will consist of addition of 20 μl of 2X concentrated test article solution to a final 40 μl volume in the extracellular well of the Population Patch ClampTM (PPC) planar electrode. After mixing (three times), duration of exposure to compound is at least 5 min. Final solutions contain 0.3% DMSO. […] The current is measured using a pulse pattern consisting of a voltage step to +60 mV, 100 ms duration; voltage ramp from +60 to −120 mV, 1000 ms; step to −120 mV, 200 ms; and step to 0 mV, 200 ms; from holding potential, −30 mV. Current amplitudes were measured at the voltage step to 0 mV. The recording procedure was as follows: extracellular buffer is loaded into the PPC plate wells (11 μl per well). Cell suspension was pipetted into the wells (9 μl per well) of the PPC planar electrode. After establishment of a whole-cell configuration via amphotericin patch perforation similar to that described earlier, membrane currents were recorded using the patch clamp amplifier in the IonWorks^TM Barracuda system. Two recordings (scans) were then performed, one scan before and a second scan 5 min after test article (TA) application. […] Data acquisition and analyses were performed using the IonWorks Barracuda^TM system operation software (version 2.0.2). The decrease in current amplitude after test article application was used to calculate the percent block relative to control. […] Inhibition effect was calculated as: % Inhibition = (1 – ITA/IBaseline) × 100%, where IBaseline and ITA were the currents measured in control (before addition of a test article) and in the presence of a test article, respectively.

human bronchial rings = assay: Wire myograph bronchodilation of carbachol pre-contracted human bronchial rings (Amgen)
Description: Bronchodilator studies using human bronchial rings (Figure 5E–G and Supplementary Figure 38) used the same instruments and reagents described earlier for studies on mouse tracheal rings.
Non-transplantable human lungs were obtained through the International Institute for the Advancement of Medicine, IIAM (Edison, NJ, United States) from non-smoking donors who had been ventilated for <3 days with acceptable blood gasses and used within 24 h of cross-clamp time.
Human 4th order bronchial rings were isolated, sliced into 2 mm long rings and then mounted individually in chambers of wire myographs containing 6 ml room temperature PSS per chamber. […] Bronchial rings are allowed to equilibrate in PSS while chambers are warmed to 37°C. […] The rings were then equilibrated for additional 40–60 min, changing buffer every 15–20 min. Tension was adjusted if it dropped below 9.8 mN. Airway rings were “woken up” by exposing to pre-warmed, aerated KPSS and allowing rings to reach plateau of constriction, followed by washing rings four times with PSS. This procedure was repeated two additional times.
Airway contraction response was then assessed by treating with increasing doses of the contractant, carbachol (10 nM to 10 μM), waiting for response plateaus (at least 5 min between additions).
At the end of each CCRC, rings were fully relaxed by addition of 2.2 mM theophylline. One hundred percent contraction was calculated by subtracting the stable tension remaining in the airway ring after theophylline addition from the tension achieved after addition of EC75 carbachol while 100% relaxation is the net tension remaining after theophylline addition. Dose response curves and EC50 values for bronchodilation were determined in GraphPad Prism.

primary human ASM cells [3] = assay: Methacholine-induced calcium flux in primary human ASM cells; format: cell-based; conditions: methacholine 10 M (so in the source), read-out: IC50 block of methacholine calcium flux
Description: as §1, §2

mouse tracheal rings = assay: Bronchodilation of mouse tracheal rings at differing levels of carbachol pre-contraction; conditions: EC95 level of carbachol, normalized to theophylline
Description: Standard procedures as listed above were used to prepare, mount and Wake-Up tracheal rings and the concentrations of carbachol providing EC25, EC50, EC75, or EC95 levels of contraction for each ring was determined as described above.

[4] = tested on: Wnt/β-catenin transcription; conditions: cited from earlier work
[5] = 20 μM forskolin, IonWorks Barracuda, read-out: CFTR Chloride Current (IC50)
[6] = Homo sapiens, EC75 carbachol, 4th order bronchi, 5 μM indomethacin, read-out: EC50 relaxing carbachol precontracted human bronchial rings
[7] = Homo sapiens, supplement, 5 M indomethacin (so in the source), read-out: EC50 relaxation of carbachol pre-contracted human bronchial rings
[8] = ref Mook et al. (2015), read-out: Mook et al. Wnt/β-catenin TopFlash (IC50)

T1 sequence (P13569 whole entry): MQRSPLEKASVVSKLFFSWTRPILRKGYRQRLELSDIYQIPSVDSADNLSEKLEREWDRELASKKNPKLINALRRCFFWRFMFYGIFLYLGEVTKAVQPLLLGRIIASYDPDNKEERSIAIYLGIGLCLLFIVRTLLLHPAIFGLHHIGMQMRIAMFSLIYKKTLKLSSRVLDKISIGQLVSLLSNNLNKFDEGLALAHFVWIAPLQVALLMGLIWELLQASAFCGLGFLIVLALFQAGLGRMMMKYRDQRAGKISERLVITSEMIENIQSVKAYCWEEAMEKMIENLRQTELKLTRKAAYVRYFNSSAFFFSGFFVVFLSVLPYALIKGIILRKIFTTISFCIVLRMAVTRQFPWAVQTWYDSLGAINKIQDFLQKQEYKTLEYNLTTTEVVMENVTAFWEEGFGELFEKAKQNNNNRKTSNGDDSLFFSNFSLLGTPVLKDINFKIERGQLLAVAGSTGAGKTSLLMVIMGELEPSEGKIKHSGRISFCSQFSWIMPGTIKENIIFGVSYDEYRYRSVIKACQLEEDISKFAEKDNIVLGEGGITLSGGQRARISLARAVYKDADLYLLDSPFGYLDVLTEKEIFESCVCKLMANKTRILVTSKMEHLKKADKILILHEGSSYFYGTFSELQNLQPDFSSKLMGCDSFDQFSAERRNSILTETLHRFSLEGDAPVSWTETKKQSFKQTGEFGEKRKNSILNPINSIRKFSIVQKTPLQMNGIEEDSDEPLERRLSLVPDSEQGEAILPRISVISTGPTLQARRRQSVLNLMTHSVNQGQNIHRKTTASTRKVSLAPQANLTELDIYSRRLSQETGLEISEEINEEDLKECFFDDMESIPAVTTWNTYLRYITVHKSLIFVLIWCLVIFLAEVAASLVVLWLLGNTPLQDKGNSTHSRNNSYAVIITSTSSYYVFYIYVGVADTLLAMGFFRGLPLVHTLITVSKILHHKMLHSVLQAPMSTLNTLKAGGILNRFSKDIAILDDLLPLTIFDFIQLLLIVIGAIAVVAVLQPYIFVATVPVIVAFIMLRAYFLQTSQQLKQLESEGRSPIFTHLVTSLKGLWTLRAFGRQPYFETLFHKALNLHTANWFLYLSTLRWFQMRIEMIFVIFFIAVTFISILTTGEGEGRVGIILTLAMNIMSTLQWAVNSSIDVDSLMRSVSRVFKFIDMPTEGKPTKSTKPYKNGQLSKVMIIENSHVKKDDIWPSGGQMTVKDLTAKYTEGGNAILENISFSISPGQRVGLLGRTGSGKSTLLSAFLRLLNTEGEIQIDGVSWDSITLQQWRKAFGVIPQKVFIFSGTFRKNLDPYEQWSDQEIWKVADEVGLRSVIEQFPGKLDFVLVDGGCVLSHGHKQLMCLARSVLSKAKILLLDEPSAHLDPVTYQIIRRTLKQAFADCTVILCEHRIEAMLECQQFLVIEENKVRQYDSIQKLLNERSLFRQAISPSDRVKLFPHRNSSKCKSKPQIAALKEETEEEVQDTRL

Compound | IC50 (primary human ASM cells [1]) [µM] | IC50 (human CFTR; [5]) [µM] | EC50 (human bronchial rings; [6]) [µM] | effect on cAMP-induced CFTR chloride current (human CFTR; IonWorks Barracuda) | other results
CCc1c(C)nc(SCC(=O)Nc2nc(-c3ccc(OC)cc3)cs2)[nH]c1=O [T16Ainh-A01] | 15 | > 30 | – | – | EC50 [2]: 3.9 µM
CC(C)(C)C1CCc2c(sc(NC(=O)c3ccco3)c2C(=O)O)C1 (centres unmarked) [CaCCinh-A01] | 7 | 10.1 | 9.24 | reduced | IC50 (primary human ASM cells [3]): 50 µM
O=C(Nc1ccc([N+](=O)[O-])cc1Cl)c1cc(Cl)ccc1O [Niclosamide] | – | > 30 | 0.73 | inactive | relaxation of airway rings (mouse tracheal rings): roughly 100%; percent of inhibition (POI) of the forskolin-induced CFTR current (human CFTR): < 20%; effect on CFTR chloride current (human CFTR): no significant effects; IC50 ([4]; TOPFlash reporter assay, ref Mook et al., 2015, read-out: IC50 inhibition of Wnt/β-catenin transcription): 0.34 µM
O=C(O)c1cccnc1Nc1cccc(C(F)(F)F)c1 [Niflumic Acid] | – | > 30 | 14.4 ± 0.76 | – | EC50 (human bronchial rings; [7]): 14.9 µM
O=C(Nc1ccc([N+](=O)[O-])cc1)c1cc(Cl)ccc1O [Cpd 2] | – | – | – | inactive | percent of inhibition (POI) of the forskolin-induced CFTR current (human CFTR): < 20%; IC50 [4, 8]: 0.99 µM
O=C(Nc1ccc(Cl)cc1)c1cc(Cl)ccc1O [Cpd 5] | – | – | – | – | IC50 [4, 8]: 1.3 µM
Oc1ccc(Cl)cc1Cc1cc(Cl)ccc1O [Dichlorophen] | 57 | – | 19.1 | – | EC50 (human bronchial rings; EC75 carbachol, 4th order bronchi, 5 μM indomethacin, read-out: EC50 relaxing carbachol precontracted human bronchial rings): 10.6 ± 12 µM; EC50 [2]: 4.1 µM; IC50 (primary human ASM cells [3]): 106 µM
COc1cc(Nc2ccc([N+](=O)[O-])cc2C(=O)O)cc2ccccc12 [MONNA] | – | 19 | – | reduced | –
CCc1oc2ccccc2c1C(=O)c1cc(Br)c(O)c(Br)c1 [Benzbromarone] | 2 | – | 2.08 ± 1.95 | reduced | EC50 (human bronchial rings; [7]): 3.45 µM; relaxation of airway rings (mouse tracheal rings): roughly 100%; EC50 [2]: 9.9 µM; IC50 (human CFTR): 5.2 µM; IC50 (primary human ASM cells [3]): 7 µM
COc1cc([N+](=O)[O-])ccc1NC(=O)c1cc(Cl)c2ccccc2c1O [Cpd 4] | – | > 30 | 1.61 | inactive | relaxation of airway rings (mouse tracheal rings): roughly 100%; percent of inhibition (POI) of the forskolin-induced CFTR current (human CFTR): < 20%; effect on CFTR chloride current (human CFTR): no significant effects
N#Cc1c(C(F)(F)F)cc(O)n2c1nc1ccccc12 [1PBC] | – | > 30 | 0.91 ± 0.2 | inactive | EC50 (human bronchial rings; [7]): 0.761 µM
